Where two headings read alike, the source gives them in different places.
Legend:
[1] = test system: Bacillus cereus ŁOCK 0807; test: MIC determination; format: cell-based; conditions: Bacillus cereus ŁOCK 0807; 18 h
Experimental: (§1) The antibacterial activity of tested samples was assessed against both gram-positive bacteria (Staphylococcus aureus ATCC 25923, Staphylococcus aureus ATCC 6538, Staphylococcus epidermidis ATCC 12228, Enterococcus faecalis ATCC 29212, Listeria monocytogenes ATCC 19115, Bacillus subtilis ATCC 6633, Bacillus cereus ATCC 10876) and gram-negative bacteria (Escherichia coli ATCC 10530, Salmonella typhimurium ATCC 14028). Antibacterial properties were evaluated using both the dilution method (employing DMSO and 96-well plates) and the diffusion-well method (using Mueller Hinton Agar, Merck, Germany).
(§2) The minimum inhibitory concentrations (MICs) of the tested samples were evaluated against a panel of reference microorganisms obtained from the American Type Culture Collection (ATCC), including Gram-negative bacteria (Escherichia coli ATCC 10530, Salmonella typhimurium ATCC 14028), and Gram-positive bacteria (Staphylococcus aureus ATCC 25923, Staphylococcus aureus ATCC 6538, Staphylococcus epidermidis ATCC 12228, Enterococcus faecalis ATCC 29212, Listeria monocytogenes ATCC 19115, Bacillus subtilis ATCC 6633), and one strain (Bacillus cereus ŁOCK 0807) obtained from the Pure Culture of Industrial Microorganisms of the Institute of Fermentation Technology and Microbiology ŁOCK 105 (Łódź, Poland).
(§3) The microorganism cultures with a density of 1.5 × 10^8 CFU mL^−1 (corresponding to a McFarland standard of 0.5) were plated on Mueller–Hinton Agar (Merck, Germany) following the procedures recommended by the European Committee on Antimicrobial Susceptibility Testing (EUCAST).[47] Wells measuring 10 mm in diameter were cut into the medium. The tested compounds were dissolved in a DMSO solution, which was recommended due to their chemical structures. Subsequently, 100 μL of prepared solutions containing the tested compounds at concentrations ranging from x μg mL^−1 to x μg mL^−1 were added to each well. The plates were incubated at 30 °C (for Bacillus subtilis and Bacillus cereus) or 37 °C (for other bacteria) for 18 hours. After incubation, the minimum inhibitory concentration (MIC value) was determined (the lowest concentration of the tested compounds that prevents bacterial growth) and expressed in μg mL^−1. The experiment was conducted in three independent replicates. Ciprofloxacin (Sigma Aldrich, Saint Louis, MO, USA) was used as a reference antimicrobial agent against Gram-negative bacteria, while vancomycin (Sigma Aldrich, Saint Louis, MO, USA) was used as a reference antimicrobial agent against Gram-positive bacteria.

[2] = test system: Bacillus subtilis ATCC 6633; test: MIC determination; format: cell-based; conditions: 18 h
Experimental: as §1, §2, §3

[3] = test system: Enterococcus faecalis ATCC 29212; test: MIC determination; format: cell-based; conditions: E. faecalis ATCC 29212; 18 h
Experimental: as §1, §2, §3

[4] = test system: Escherichia coli ATCC 10530; test: MIC determination; format: cell-based
Experimental: as §1, §2, §3

[5] = test system: Listeria monocytogenes ATCC 19115; test: MIC determination; format: cell-based
Experimental: as §1, §2, §3

[6] = test system: Salmonella typhimurium ATCC 14028; test: MIC determination; format: cell-based; conditions: S. typhimurium ATCC 14028; 18 h
Experimental: as §1, §2, §3

[7] = test system: Staphylococcus aureus ATCC 25923; test: MIC determination; format: cell-based; conditions: S. aureus ATCC 25923, 18 h
Experimental: as §1, §2, §3

[8] = test system: Staphylococcus aureus ATCC 6538; test: MIC determination; format: cell-based; conditions: S. aureus ATCC 6538; 18 h
Experimental: as §1, §2, §3

[9] = test system: Staphylococcus epidermidis ATCC 12228; test: MIC determination; format: cell-based; conditions: S. epidermidis ATCC 12228; 18 h
Experimental: as §1, §2, §3

S. aureus ATCC 25923 = test: Diffusion-well method, inhibition zones; format: cell-based, Staphylococcus aureus; conditions: 500 µg/mL, wells 10 mm
Experimental: as §1
(§4) 24 hour bacterial cultures with a density of 1–2 × 10^8 CFU mL^−1 were plated (0.1 mL) on Mueller–Hinton Agar (Merck, Germany). Subsequently, wells with a diameter of 10 mm were cut out from and filled with 100 μL of the tested compound at a concentration of 10–500 μg mL^−1 (diluted in DMSO). After an 18-hour incubation at either 30 °C (for Bacillus ssp.) or 37 °C (for other tested microorganisms), the inhibition zones around the wells were measured, and the results were expressed in millimetres (Table S9 ^†).

S. aureus ATCC 6538 = test: Diffusion-well method, inhibition zones; format: cell-based, Staphylococcus aureus; conditions: 500 µg/mL, wells 10 mm
Experimental: as §1, §4

[10] = test system: S. epidermidis ATCC 12228; test: Diffusion-well method, inhibition zones; format: cell-based, Staphylococcus epidermidis; conditions: 500 µg/mL, wells 10 mm
Experimental: as §1, §4

E. faecalis ATCC 29212 = test: Diffusion-well method, inhibition zones; format: cell-based, Enterococcus faecalis; conditions: 500 µg/mL, wells 10 mm
Experimental: as §1, §4

B. cereus ŁOCK 0807 = test: Diffusion-well method, inhibition zones; format: cell-based, Bacillus cereus; conditions: 500 µg/mL, wells 10 mm
[11] = test system: L. monocytogenes ATCC 19115; test: Diffusion-well method, inhibition zones; format: cell-based, Listeria monocytogenes; conditions: 500 µg/mL, wells 10 mm
Experimental: as §1, §4

B. subtilis ATCC 6633 = test: Diffusion-well method, inhibition zones; format: cell-based, Bacillus subtilis; conditions: 500 µg/mL, wells 10 mm
Experimental: as §1, §4

E. coli ATCC 10530 = test: Diffusion-well method, inhibition zones; format: cell-based, Escherichia coli; conditions: 500 µg/mL, wells 10 mm
Experimental: as §1, §4

[12] = test system: S. Typhimurium ATCC 14028; test: Diffusion-well method, inhibition zones; format: cell-based, Salmonella typhimurium; conditions: 500 µg/mL, wells 10 mm
Experimental: as §1, §4

[13] = test system: glioblastoma LN-229 cells; test: MTT cell viability assay; format: cell-based, human; conditions: 48 hours of incubation
Experimental: (§5) The glioblastoma cell lines LN-229 and U87 and the reference human normal skin fibroblast BJ were obtained from the American Type Culture Collection (ATCC). Cells were grown as monolayers when cultured in cell culture flasks and cultured in Dulbecco's Modified Eagle Medium (DMEM) – LN-229 and Eagle's Minimum Essential Medium (EMEM) – U87 and BJ, supplemented with 10% (v/v) fetal bovine serum, penicillin (10 000 U mL^−1), streptomycin (10 mg mL^−1) and amphotericin B (250 μg mL^−1). The cells were incubated at 37 °C, 5% CO2 atmosphere. The cells were maintained in the logarithmic growth phase by regular passage at 80% confluence.
(§6) The cytotoxicity of the tested compounds was evaluated against both human glioblastoma LN-229 and U-87 as well as normal BJ cell lines. The cells were plated in 96-well culture plates (2 × 10^4 well) and after 24 h incubation the cells were treated with the tested compounds in the concentration range 1–50 μM. The cells were cultured for the next 48 h. The cytotoxicity of the compounds was evaluated using the MTT colorimetric method as previously described.[28,29] IC50 values were determined using the AAT Bioquest IC50 calculator as the concentration of compounds capable of reducing cell viability by 50%. The experiment was performed in triplicate for each concentration. To examine the cytotoxic effect of compounds on cell morphology, cells were examined under an inverted phase contrast microscope Nikon Eclipse Ti with NIS Element software (Tokyo, Japan).

glioblastoma U87 cells = test: MTT cell viability assay; format: cell-based, human; conditions: 48 hours of incubation
Experimental: as §5, §6

[14] = test system: normal skin fibroblast BJ cells; test: MTT cell viability assay; format: cell-based, human; conditions: BJ normal fibroblasts, 48 hours of incubation
Experimental: as §5, §6

[15] = test system: Staphylococcus aureus ATCC 25923; set-up: method as in earlier work; conditions: pure ligands, S. aureus ATCC 25923; previous study ref 29; cited from earlier work
[16] = test system: Staphylococcus epidermidis ATCC 12228; set-up: method as in earlier work; conditions: pure ligands, S. epidermidis ATCC 12228; previous study ref 29; cited from earlier work
[17] = test system: Enterococcus faecalis ATCC 29212; set-up: method as in earlier work; conditions: pure ligands, E. faecalis ATCC 29212; previous study ref 29; cited from earlier work
[18] = test system: Salmonella typhimurium ATCC 14028; set-up: method as in earlier work; conditions: pure ligands, S. typhimurium ATCC 14028; previous study ref 29; cited from earlier work
[19] = Escherichia coli ATCC 10530, 18 h
[20] = Listeria monocytogenes ATCC 19115, 18 h

NC(=NN=Cc1ccc([N+](=O)[O-])cc1)c1cccc(N2CCCC2)n1.NC(=NN=Cc1ccc([N+](=O)[O-])cc1)c1cccc(N2CCCC2)n1.O=[N+]([O-])[O-].[Ag+] [Complex 4, AgL4NO3]
MIC [1]: 50 µg/mL
MIC [2]: 50 µg/mL
MIC [3]: 50 µg/mL
MIC [4, 19]: ≤ 10 µg/mL
MIC ([4]; Escherichia coli ATCC 10530, 18 h, listed as 4): < 10 µg/mL
MIC [5, 20]: ≤ 10 µg/mL
MIC ([5]; Listeria monocytogenes ATCC 19115, 18 h, listed as 4): 10 µg/mL
MIC [6]: 100 µg/mL
MIC [7]: ≤ 10 µg/mL
MIC ([7]; listed as 4): <10 µg/mL
MIC [8]: 100 µg/mL
MIC [9]: 50 µg/mL
Inhibition zone (S. aureus ATCC 25923): 21 mm
Inhibition zone (S. aureus ATCC 6538): 16 mm
Inhibition zone [10]: 16 mm
Inhibition zone (E. faecalis ATCC 29212): 15 mm
Inhibition zone (B. cereus ŁOCK 0807): 17 mm
Inhibition zone [11]: 19 mm
Inhibition zone (B. subtilis ATCC 6633): 18 mm
Inhibition zone (E. coli ATCC 10530): 20 mm
Inhibition zone [12]: 17 mm
IC50 [13]: > 50 µM
IC50 (glioblastoma U87 cells): 1.22 ± 0.34 µM
IC50 [14]: > 50 µM

N/C(=N\N=C\c1ccccc1)c1cncc(N2CCCC2)n1 [Complex L6, (benzylidene)-6-(pyrrolidin-1-yl)pyrazine-2-carbohydra-zonamide]
IC50 ([13]; Homo sapiens): > 50 µM
IC50 (glioblastoma U87 cells; Homo sapiens, U-87 MG): > 50 µM
IC50 ([14]; Homo sapiens): 42.4 ± 6.17 µM
MIC [15]: 500 µg/mL
MIC [16]: 500 µg/mL
MIC [17]: 500 µg/mL
MIC [18]: 500 µg/mL

NC(=NN=Cc1ccc([N+](=O)[O-])cc1)c1cccc(Cl)n1.O=[N+]([O-])[O-].[Ag+] [Complex 2, AgL2NO3]
MIC [1]: 50 µg/mL
MIC [2]: 50 µg/mL
MIC [3]: 50 µg/mL
MIC ([4]; Escherichia coli): 10 µg/mL
MIC [4, 19]: 10 µg/mL
MIC ([5]; Listeria monocytogenes): 10 µg/mL
MIC [5, 20]: 10 µg/mL
MIC [6]: 50 µg/mL
MIC [7]: 50 µg/mL
MIC [8]: 50 µg/mL
MIC [9]: > 500 µg/mL
Inhibition zone (S. aureus ATCC 25923): 19 mm
Inhibition zone (S. aureus ATCC 6538): 22 mm
Inhibition zone (E. faecalis ATCC 29212): 14 mm
Inhibition zone (B. cereus ŁOCK 0807): 18 mm
Inhibition zone [11]: 19 mm
Inhibition zone (B. subtilis ATCC 6633): 16 mm
Inhibition zone (E. coli ATCC 10530): 20 mm
Inhibition zone [12]: 19 mm
IC50 [13]: 37.2 ± 6.55 µM
IC50 (glioblastoma U87 cells): > 50 µM
IC50 [14]: 14.5 ± 2.82 µM

NC(=NN=Cc1ccccc1)c1cncc(Cl)n1 [Complex L1, N′-(benzylidene)-6-chloropyrazine-2-carbohydrazonamide]
IC50 ([13]; Homo sapiens): > 50 µM
IC50 (glioblastoma U87 cells; Homo sapiens, U-87 MG): > 50 µM
IC50 ([14]; Homo sapiens): > 50 µM
MIC [15]: 500 µg/mL
MIC [16]: 500 µg/mL
MIC [17]: 250 µg/mL
MIC [18]: >500 µg/mL

N/C(=N\N=C\c1ccccc1)c1cncc(N2CCOCC2)n1 [Complex L5, (benzylidene)-6-morpholinopyrazine-2-carbohydrazonamide]
IC50 ([13]; Homo sapiens): > 50 µM
IC50 (glioblastoma U87 cells; Homo sapiens, U-87 MG): > 50 µM
IC50 ([14]; Homo sapiens): > 50 µM
MIC [15]: >500 µg/mL
MIC [16]: >500 µg/mL
MIC [17]: >500 µg/mL
MIC [18]: >500 µg/mL

N/C(=N\N=C\c1ccc([N+](=O)[O-])cc1)c1cccc(N2CCCC2)n1 [Complex L4, (4-nitrobenzylidene)-6-(pyrrolidin-1-yl)picolinohydrazonamide]
IC50 ([13]; Homo sapiens): 48.1 ± 6.09 µM
IC50 (glioblastoma U87 cells; Homo sapiens, U-87 MG): > 50 µM
IC50 ([14]; Homo sapiens): > 50 µM
MIC [15]: >500 µg/mL
MIC [16]: >500 µg/mL
MIC [17]: >500 µg/mL
MIC [18]: >500 µg/mL

NC(=NN=Cc1ccccc1)c1cncc(N2CCOCC2)n1.O.O=[N+]([O-])[O-].[Ag+] [Complex 5, AgL5NO3 × H2O]
MIC [1]: 50 µg/mL
MIC [2]: 50 µg/mL
MIC [3]: 50 µg/mL
MIC [4, 19]: > 500 µg/mL
MIC [5, 20]: 10 µg/mL
MIC [6]: 50 µg/mL
MIC [7]: 50 µg/mL
MIC [8]: 10 µg/mL
MIC [9]: <10 µg/mL
Inhibition zone (S. aureus ATCC 25923): 19 mm
Inhibition zone (S. aureus ATCC 6538): 17 mm
Inhibition zone [10]: 18 mm
Inhibition zone (E. faecalis ATCC 29212): 17 mm
Inhibition zone (B. cereus ŁOCK 0807): 19 mm
Inhibition zone [11]: 19 mm
Inhibition zone (B. subtilis ATCC 6633): 18 mm
Inhibition zone [12]: 17 mm
IC50 [13]: > 50 µM
IC50 (glioblastoma U87 cells): 49.7 ± 3.11 µM
IC50 [14]: > 50 µM

Source: paper PMC12150283, “Synthesis of new Ag(I) and Cd(II) hydrozanomide-based complexes with antibacterial and anticancer properties” (RSC Advances, 2025)
